Reference: patent publication US6958311B2, “Flowering regulators” (Riken, priority 2000, dated 2005)

System: American Blue (Evolvulus pilosus)
Assay: Flowering of American Blue pots in greenhouse after spraying with brassinazole solution
Format: in vivo
Conditions: sprayed 1000 g/ha on days 0, 7, 14 and 30
From the text: In the figure, □ indicates the result of a group treated with the flowering regulator of the present invention (brassinazole), and ∇ indicates the result of an untreated group. The vertical axis indicates a rate of flowering, and the horizontal axis indicates the number of days after the treatment. The arrows indicate the days when the flowering regulator is sprayed. Forty four pots of American Blue (Evolvulus pilosus) of about one month after cutting, which were purchased as-commercial products, were grown in a greenhouse at 22° C. under a natural light condition during the day and an artificial light condition during the night. These pots were divided into two groups, and 22 plants were sprayed with brassinazole [4-(4-chlorophenyl)-2-phenyl-3-(1,2,4-triazoyl)butan-2-ol] solution in an amount of 1000 g/ha on days 0, 7, 14 and 30. The other group (22 plants) was grown under the same conditions except for the treatment with the agent. As the brassinazole solution, 0.5 mg/ml aqueous solution containing 0.1% dimethyl sulfoxide and 0.1% Tween 20 was prepared, and diluted to a 1/10 concentration with water upon use and sprayed by using a spray in the predetermined amount.

CC(O)(c1ccccc1)C(Cc1ccc(Cl)cc1)n1cncn1 (centres unmarked) [brassinazole, 4-(4-chlorophenyl)-2-phenyl-3-(1,2,4-triazoyl)butan-2-ol]
flowering accelerating effect (compared with the untreated plot): clearly demonstrated | flowering (rate of flowering) (greenhouse 22° C., 22 plants, untreated plot: flowering on only one plant on day 35): flowering occurred after flower-bud formation
